Results taken from patent US9713332B2, “Glyphosate application for weed control in Brassica” (priority 2013, dated 2017).

Experiments:
[1] = tested on: canola event DP-73496-4 (GAT1); experiment: Herbicide efficacy field trials, chlorosis / crop response after late stage glyphosate application; type: in vivo
Text: Field trials were split plot designed with glyphosate treatments as the main factor and entries as the subplot. Entries were randomized within the split factor, and the split was randomized within the replicate.
The following treatments with glyphosate were used as detailed below at different growth stages. In these tests, 1X glyphosate treatment was 675 g ae/ha, 2X glyphosate treatment was 1350 g ae/ha, 3X glyphosate treatment was 2025 g ae/ha and 4X glyphosate treatment was 2700 g ae/ha. All treatments were applied using a mechanical sprayer. For example, in Treatment 1 below, “2X cotyledon” describes a treatment of 1350 g ae/ha of glyphosate at the cotyledon growth stage. Various treatments were tested over a two year period and are described below.
(§1) • 1. 2X cotyledon • 2. 2X 3-5 leaf stage • 3. 2X cot+2X 3-5 leaf stage • 4. 2X cot+2X bolting BBCH55 • 5. 4X cotyledon • 6. 4X 3-5 leaf stage Treatments Tested in Year 2: • 1. 1X cotyledon+1X 3-5 leaf stage • 2. 2X cotyledon+2X 3-5 leaf stage • 3. 1X cotyledon+1X green bud BBCH51 • 4. 2X cotyledon+2X green bud BBCH51 • 5. 1X cotyledon+1X 10% flower BBCH61 • 6. 2X cotyledon+2X 10% flower BBCH61
Percent chlorosis was determined. Visual rating of chlorosis on plants was taken during the period indicated (i.e. 3-5 days) after spray application. Yellowing of the apical meristem, newest leaves or older leaves indicated herbicide-induced chlorotic injury. 100%=all tissue is yellow, 0%=no signs of yellowing tissue.
Late stage glyphosate applications are applications of glyphosate at later growth stages than on the glyphosate label. […] In Year 1, the expanded window application of glyphosate was 2X cot+2X bolting BBCH55; a 2X treatment during the cotyledon stage and an additional 2X treatment during the plant growth stage where individual flower buds (main inflorescence) are visible but are still closed. In Year 2, 1X cotyledon, 1X green bud BBCH51; 2X cotyledon, 2X green bud BBCH51; 1X cotyledon, 1X 10% flower BBCH61; and 2X cotyledon, 2X 10% flower BBCH61 expanded window treatments were included.

[2] = tested on: canola event DP-73496-4 (GAT1); experiment: Herbicide efficacy field trials, determination of yield; type: in vivo
Procedure: Field trials were split plot designed with glyphosate treatments as the main factor and entries as the subplot. The split-plot design was used since more than one glyphosate treatment in each location was evaluated, where a different treatment to an individual plot was applied. In split-plot, the levels of the main-plot factor (glyphosate treatments) and the sub-plot factors (individual event entries) within the main-plots were randomized.
The following treatments with glyphosate were used as detailed below at different growth stages. In these tests, 1X glyphosate treatment was at 675 g ae/ha, 2X glyphosate treatment was at 1350 g ae/ha, 3X glyphosate treatment was at 2025 g ae/ha and 4X glyphosate treatment was at 2700 g ae/ha as active ingredient of glyphosate. All treatments were applied using a mechanical sprayer. For example, in Treatment 1 below, “2X cotyledon” describes a treatment of 1350 g ae/ha of glyphosate at the cotyledon growth stage. Various treatments were tested over a two year period and are described below.
as §1
To reduce the growth of weeds in the control plots, conventional herbicides or mechanical pulling of weeds were used as needed. There was no glyphosate applied to the control plots and was used as the control/base to which other glyphosate treatments were compared. The control plots may have had one or more weeds present during the growing season. Control is based on conventional herbicides that are registered for use in all canola.
Plots were considered desiccated when 60-70% of the seed had turned from green to black colour. Combining occurred 5-14 days after desiccation depending on the weather conditions. Each plot was harvested individually. Moisture and weight were recorded directly on the combine. Yield was determined for the GAT1 event.
Various locations were used in the test. Trials were evaluated across 10 locations in both Year 1 and Year 2. Locations included several sites in the short, mid, and long season zones across both years.
The event that was tested was canola event DP-73496-4 (GAT1) (PCT International Patent Application No. PCT/US2010/058011, incorporated by reference).
Late stage glyphosate applications are applications of glyphosate at later growth stages than on the glyphosate label. […]

GAT1 and GAT2 events [3] = experiment: Herbicide efficacy trials in 9 locations, herbicide-induced necrosis and chlorosis injury; type: in vivo, Brassica
Procedure: (§2) Transgenic events expressing GAT1 and GAT2 genes were tested herein. GAT1, as mentioned herein is the Brassica GAT event DP-073496-4 (PCT International Patent Application No. PCT/US2010/058011, incorporated by reference). GAT2, as mentioned herein is another transgenic Brassica line expressing a GAT variant.
Chlorosis percent injury describes a visual rating of the percentage of the plant with a yellowing of the apical meristem, newest leaves or older leaves, where 100% denotes that all tissue is yellow, and 0% denotes the absence of yellowing tissue in plants treated with herbicide.
GAT2 events were subjected to herbicide efficacy trials along with the GAT1 as diagonal check in 9 different locations. The herbicide efficacy trials consisted of 6 treatments that included: a control with no glyphosate, 2X, 4X or 8X glyphosate administered at the 3-5 leaf stage (1X=675 g ae/ha), a 2X administered during the 3-5 leaf stage and during the green bud stage (+2X Green Bud), and a 2X administered during the 3-5 leaf stage and during 10% bloom (+2X 10% Bloom). Herbicide-induced necrosis and chlorosis injury was recorded at leaf stages 5, 10, 21 and 30 DAT (days after treatment). […] Yield from different treatments was expressed as a percent to the 2X treatment at the 3 to 5 leaf stage. […] The application of 4X glyphosate at the 3-5 leaf stage led to a 6 to 8% decrease in yield compared to the 2X treatment, and at the 8X rate, yield decreased from 10 to 12% in treated events compared to the 2X treatment (FIG. 3).

GAT1 and GAT2 events [4] = experiment: Herbicide efficacy trials in 9 locations, yield as percent to the 2X treatment at the 3 to 5 leaf stage; type: in vivo, Brassica; details: 2X at the 3-5 leaf stage and 2X during green bud or 10% bloom stage; FIG. 3
Procedure: as §2
Percentage of yield relative to 2X describes the yield obtained for the GAT events treated with respective glyphosate herbicide treatments compared to the same GAT events subjected to a solution containing 2X glyphosate treatment at the 3 to 5 leaf stage, expressed as a percentage of the 2X treatment at the 3 to 5 leaf stage.
GAT2 events were subjected to herbicide efficacy trials along with the GAT1 as diagonal check in 9 different locations. The herbicide efficacy trials consisted of 6 treatments that included: a control with no glyphosate, 2X, 4X or 8X glyphosate administered at the 3-5 leaf stage (1X=675 g ae/ha), a 2X administered during the 3-5 leaf stage and during the green bud stage (+2X Green Bud), and a 2X administered during the 3-5 leaf stage and during 10% bloom (+2X 10% Bloom). Herbicide-induced necrosis and chlorosis injury was recorded at leaf stages 5, 10, 21 and 30 DAT (days after treatment). […] Yield from different treatments was expressed as a percent to the 2X treatment at the 3 to 5 leaf stage. […]

For O=C(O)CNCP(=O)(O)O [glyphosate], the chlorosis ([1]; Year 1, 2X Cot and 2X Bolting BBCH55 (2X = 1350 g ae/ha), all three hybrids, one location) was 1%, the “recovery of transient chlorosis” value ([1]; Year 1, 2X Cot and 2X Bolting BBCH55, 10 days after glyphosate application) was “Full recovery” and the chlorosis ([1]; Year 1, 2X Cot and 2X Bolting BBCH55, one hybrid background, second location) was 3%. For the same compound, the crop response ([1]; Year 1, 2X Cot and 2X Bolting BBCH55, remaining eight locations) was “no crop response”, the crop response ([1]; Year 2, extended window glyphosate treatments, four GAT-expressing canola backgrounds) was “did not have any crop response” and the “yield compared to the control treatment” value ([2]; Year 1, 2X Cot and 2X Bolting BBCH55) was “not significantly different”. The “yield compared to the control treatment” value ([2]; Year 2, late split applications at 2X glyphosate (1350 g ae/ha), BBCH51 and BBCH61) was “did not result in yield reduction”, the “yield compared to the control treatment” value ([2]; Year 2, split applications 1X Cot and 1X BBCH51 (green bud), 1X Cot and 1X BBCH61 (10% flower), four backgrounds, 1X = 675 g ae/ha) was “did not result in yield reduction” and the “yield of GAT1 compared to the controls” value ([2]; at X treatment) was “did not show a reduction in yield”. The chlorotic injury (GAT1 and GAT2 events [3]; both GAT1 and GAT2 events, even at 8X spray rates, and during green bud and 10% bloom, FIG. 2) was “Negligible”, the herbicide-induced necrotic injury (GAT1 and GAT2 events [3]; even at 8X spray rates (1X = 675 g ae/ha), FIG. 1) was “minimally observed” and the “herbicide-induced injury (necrosis, chlorosis) beyond 10 DAT” value (GAT1 and GAT2 events [3]; rated 5, 10, 21 and 30 DAT, 2X, 4X, 8X at 3-5 leaf, 2X+2X green bud, 2X+2X 10% bloom) was “No injury was observed”. The “differences in yield compared to the 2X treatment at 3-5 leaf stage” value (GAT1 and GAT2 events [4]) was “no appreciable differences in yield”.
